Data from patent US5801016A, “DNA fragment, recombinant vector containing the same and method for expressing foreign genes using the same” (Japan Tobacco Inc., priority 1995, dated 1998).

Experiments:
[1] = molecular target: T1, rice (Oryza sativa) bran phospholipase D (PLD), purified fraction Mono Q 2nd-II (Oryza sativa subsp. japonica, UniProt Q43007); assay: PLD enzyme activity with phosphatidylcholine as substrate, quantifying the choline generated; type: biochemical; conditions: eluted solution Mono Q 2nd-II
T1 construct: bran of rice (Oryza sativa); from tissue; host or cells: rice (Oryza sativa) bran, variety KOSHIHIKARI, purified to Mono Q 2nd-II
T1 sequence (Q43007 47-812): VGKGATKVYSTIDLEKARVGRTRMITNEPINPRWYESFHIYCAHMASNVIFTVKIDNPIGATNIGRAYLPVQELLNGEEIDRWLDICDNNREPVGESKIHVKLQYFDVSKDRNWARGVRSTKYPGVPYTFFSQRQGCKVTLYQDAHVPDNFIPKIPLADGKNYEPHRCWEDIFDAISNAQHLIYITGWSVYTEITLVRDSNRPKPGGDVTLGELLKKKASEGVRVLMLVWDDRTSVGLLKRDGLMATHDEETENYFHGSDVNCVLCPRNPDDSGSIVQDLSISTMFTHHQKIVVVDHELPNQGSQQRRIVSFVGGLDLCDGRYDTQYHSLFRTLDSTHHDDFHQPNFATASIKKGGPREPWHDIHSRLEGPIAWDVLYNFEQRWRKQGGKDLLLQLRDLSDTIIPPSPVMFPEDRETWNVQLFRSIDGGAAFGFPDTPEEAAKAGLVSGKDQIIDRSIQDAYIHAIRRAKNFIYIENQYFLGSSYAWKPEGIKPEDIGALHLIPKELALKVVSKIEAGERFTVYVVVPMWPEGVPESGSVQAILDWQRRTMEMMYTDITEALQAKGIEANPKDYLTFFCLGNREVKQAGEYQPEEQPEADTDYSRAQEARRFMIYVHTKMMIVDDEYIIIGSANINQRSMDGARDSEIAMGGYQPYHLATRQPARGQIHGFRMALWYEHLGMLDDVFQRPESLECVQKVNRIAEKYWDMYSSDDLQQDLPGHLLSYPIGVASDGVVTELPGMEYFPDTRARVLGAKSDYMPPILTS
Description: (§1) For purification, a reference (Takano et al., Journal of Japan Food Industry Association, 34, 8-13 (1987) was referred. The enzyme activity was measured by employing phosphatidylcholine as a substrate and quantifying the choline generated by the enzyme reaction (Imamura et al., J. Biochem. 83, 677-680 (1978)). It should be noted, however, the enzyme reaction was stopped by heat treatment at 95° C. for 5 minutes.
(§2) Properties of the enzymes contained in the two fractions were determined. The buffer solutions used for the measurement of the optimum pH were sodium acetate (pH 4-6), MES-NaOH (pH 5.5-7.0) and Tris-HCl (pH 7-9), all of which have a concentration of 100 mM in all of the buffer solutions. The pH stability means the pH range in which decrease in the enzyme activity is not observed after leaving the enzyme at the respective pH at 25° C. for 30 minutes. The temperature stability was measured by measuring the remaining activity after leaving the enzyme to stand at 4° C., 25° C., 37° C. or 50° C. for 30 minutes. The substrate specificity was measured at a substrate concentration of 5 mM and expressed in terms of the relative activity taking the enzyme activity to phosphatidylcholine as 100.

[2] = molecular target: T2, rice (Oryza sativa) bran phospholipase D (PLD), purified fraction Mono Q 2nd-I (Oryza sativa subsp. japonica, UniProt Q43007); assay: as above; type: biochemical; conditions: eluted solution Mono Q 2nd-I
T2 construct: bran of rice (Oryza sativa); from tissue; host or cells: rice (Oryza sativa) bran, variety KOSHIHIKARI, purified to Mono Q 2nd-I
T2 sequence (Q43007 47-812): T1 sequence (Q43007 47-812)
Description: as §1, §2

**Q.** For phosphatidylcholine, which Km [1] is on record?
**A.** Its Km is 290 µM.

**Q.** And the Km [2]?
**A.** Its Km is 290 µM.
